Experimental data as given in patent publication US9782489B2, “MetAP-2 inhibitor polymersomes for therapeutic administration” (priority 2007, dated 2017).
Entries after “also recorded” stand apart in the source; their conditions may differ.

Assays:
[1] = post-administration; cited from earlier work
[2] = high chemotherapeutic doses; cited from earlier work
[3] = tested on: murine, human and metastatic tumors; conditions: mice; most studies 30 mg/kg subcutaneously every other day; cited from earlier work
[4] = tested on: LLC tumors; assay: Oral Lodamin vs free TNP-470, primary Lewis lung carcinoma tumor experiments; type: in vivo, C57Bl/6J mice; conditions: 30 mg/kg q.o.d. oral (TNP-470 equivalent), day 18, FIG. 9A; listed as free TNP-470
Procedure: For tumor experiments: LLC cells (1×10^6) or B16/F10 melanoma cells (1×10^6) were implanted subcutaneously in 8 week old C57Bl/6J male mice (Jackson Laboratories, Bar Harbor, Me.). Oral availability of free TNP-470 was compared to that of Lodamin. A dose of 30 mg/kg q.o.d. of free TNP-470 and an equivalent dose of Lodamin (Lodamin, 6 mg in 100 μl/d) were administered to LLC tumor bearing mice (˜100 mm^3) and tumor growth was followed for 18 d. Free drug was given as a suspension in double distilled water and freshly prepared before each dose. Additionally, we compared different doses and frequencies of Lodamin treatment: 15 mg/kg q.d., 15 mg/kg q.o.d. and 30 mg/kg q.o.d. To eliminate any possible effect of the vehicle (polymer without drug) one group of mice was given micelles without drug and tumor progression was compared to water treated mice.
For the melanoma tumor experiment, a dose of 15 mg/kg q.d. Lodamin was administered to B16/F10 melanoma bearing mice. In all experiments, tumor size and animal weight were monitored every 2 d. Tumor volume was measured with calipers in two diameters as follows: (width)×(length)×0.52. Note that all the above Lodamin doses are presented as TNP-470 equivalent.

[5] = tested on: obesity; conditions: mice; cited from earlier work
[6] = Balance beam motor coordination test (neurotoxicity); type: in vivo; conditions: 30 mg/kg q.o.d. for 14 d; Lodamin oral, free TNP-470 injected subcutaneously; vs water treated mice
Procedure: A slightly modified balance beam motor coordination test was performed on three groups of mice: Oral Lodamin treated mice (30 mg/kg eq. q.o.d.), free TNP-470 (30 mg/kg) subcutaneously injected mice and water treated mice (administered by gavage). The mice were pretreated for 14 d (n=4-5 per group) and then the mice were allowed to acclimate to the procedure room for 1 h, after which they were trained in 3 trials to cross a wide (20 mm width×1 m length) balance beam. All the mice crossed the wide beam without making foot-slip errors. The mice were then trained on a narrow (4 mm width×1 m length) beam for 3 trials. At the end of the training trials, no freezing behavior was observed, and the mice would start to walk within 4 seconds of being placed on the beam. The mice were then videotaped as they performed in 3 test trials of 3 beam crossings each—a total of 9 crossings per mouse. The 3 trials were separated by at least 1 h to avoid fatigue of the mice. Videotaped crossings were scored for number of foot-slip errors and time to cross. All experiments and scoring of the different groups were performed by an investigator who has been no knowledge regarding the treatment regime of the mice.

[7] = in vivo; cited from earlier work

Molecule | time up to which detected in mice sera [1] | adverse effects in patients [2] | inhibition of growth of human tumors [3] | inhibition of growth of metastatic tumors [3] | inhibition of growth of murine tumors [3] | inhibition of LLC tumor growth [4] | effect on obesity [5] | balance beam performance (foot-slip errors) [6] | plasma half-life of the drug [7] | plasma half-life of the metabolites [7]
6-O—(N-chloroacetylcarbamoyl) fumagillol [TNP-470] | up to 2 h | – | – | – | – | – | – | – | – | –
COC1C(OC(=O)NC(=O)CCl)CCC2(CO2)C1[C@@]1(C)O[C@@H]1CC=C(C)C (stereo partly shown) [TNP-470, 6-O—(N-chloroacetylcarbamoyl) fumagillol] | – | neurotoxicity | up to 100% | up to 100% | up to 91% | no inhibition; also recorded: no effect | prevent diet-induced and genetic obesity | over twice as many errors | a few minutes | less than 2 hr
